# Assay results from patent publication US12139492B2 (Endotarget Inc., priority 2021, dated 2024).
# Assays:
# Format in all cases: cell-based
# Mino cells = experiment: Antiproliferative effect, MTS cell viability assay, Mino cells; details: Homo sapiens, MINO, Mino mantle cell lymphoma cells; read-out: IC50 (anti-proliferation) Mino cells
# Method in brief: (§1)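 Steps: seed B-cell lymphoma line; add compound at 0, 0.001, 0.01, 0.1, 1 or 10 μM; incubate 72 h; add MTS and read reduced tetrazolium (formazan) absorbance at 490 nm.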
# BTK = BTK (Homo sapiens, UniProt Q06187); experiment: BTK degradation, DC50 and Dmax of Table 1 (cell line not given); design: endogenous in cells; details: for DC50: concentration giving 50% reduction of BTK expression level
# JeKo-1 cells = experiment: Antiproliferative effect, MTS cell viability assay, JeKo-1 cells; details: Homo sapiens; JeKo-1 mantle cell lymphoma cells; read-out: IC50 (anti-proliferation) JeKO-1 cells
# Method in brief: as §1
# Chain of BTK (Q06187 whole entry): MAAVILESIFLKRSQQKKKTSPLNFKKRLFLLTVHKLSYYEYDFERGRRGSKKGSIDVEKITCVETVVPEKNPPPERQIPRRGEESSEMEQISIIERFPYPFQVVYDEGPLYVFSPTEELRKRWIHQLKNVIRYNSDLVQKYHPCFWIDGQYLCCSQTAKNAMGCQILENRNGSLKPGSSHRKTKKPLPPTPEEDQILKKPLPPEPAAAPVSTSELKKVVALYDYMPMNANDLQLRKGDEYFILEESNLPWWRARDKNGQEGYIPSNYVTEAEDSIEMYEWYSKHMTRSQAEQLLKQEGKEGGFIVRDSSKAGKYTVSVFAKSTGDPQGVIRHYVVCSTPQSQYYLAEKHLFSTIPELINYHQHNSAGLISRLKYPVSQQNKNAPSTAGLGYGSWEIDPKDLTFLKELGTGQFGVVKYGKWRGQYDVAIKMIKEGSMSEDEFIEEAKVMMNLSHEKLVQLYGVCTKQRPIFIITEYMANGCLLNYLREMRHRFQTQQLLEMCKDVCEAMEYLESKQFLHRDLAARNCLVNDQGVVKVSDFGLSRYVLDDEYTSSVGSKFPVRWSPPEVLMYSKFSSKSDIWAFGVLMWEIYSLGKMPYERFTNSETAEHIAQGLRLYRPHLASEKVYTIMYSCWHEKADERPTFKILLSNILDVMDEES
SMILES,Dmax (BTK),DC50 (BTK),IC50 (Mino cells),IC50 (JeKo-1 cells)
"Nc1ncnc2c1c(-c1ccc(Oc3ccccc3)cc1)nn2[C@@H]1CCCN(CC2CCN(CC3CCN(c4ccc5c(c4)CN(C4CCC(=O)NC4=O)C5=O)CC3)CC2)C1 (stereo partly drawn) [Compound 130, 3-(5-(4-((4-(((R)-3-(4-amino-3-(4-phenoxyphenyl)-1H-pyrazolo[3,4-d]pyrimidin-1-yl)piperidin-1-yl)methyl)piperidin-1-yl)methyl)piperidin-1-yl)-1-oxoisoindolin-2-yl)piperidine-2,6-dione]",> 90%,0.01 to 0.05 µM,1 to 10 µM,1 to 10 µM
"Nc1ncnc2c1c(-c1ccc(Oc3ccccc3)cc1)nn2[C@@H]1CCCN(C2CCN(C(=O)N3CCC(CCCN4CCN(c5ccc6c(c5)C(=O)N(C5CCC(=O)NC5=O)C6=O)CC4)CC3)CC2)C1 (stereo partly drawn) [Compound 193, 5-(4-(3-(1-((R)-3-(4-amino-3-(4-phenoxyphenyl)-1H-pyrazolo[3,4-d]pyrimidin-1-yl)-[1,4′-bipiperidine]-1′-carbonyl)piperidin-4-yl)propyl)piperazin-1-yl)-2-(2,6-dioxopiperidin-3-yl)isoindoline-1,3-dione]",> 50%,0.01 to 0.05 µM,1 to 10 µM,> 10 µM
"Nc1ncnc2c1c(-c1ccc(Oc3ccccc3)cc1)nn2C1CCN(C(=O)N2CCC(CCN3CCC(c4ccc5c(c4)CN(C4CCC(=O)NC4=O)C5=O)CC3)CC2)CC1 (stereo not shown) [Compound 104, 3-(5-(1-(2-(1-(4-(4-amino-3-(4-phenoxyphenyl)-1H-pyrazolo[3,4-d]pyrimidin-1-yl)piperidine-1-carbonyl)piperidin-4-yl)ethyl)piperidin-4-yl)-1-oxoisoindolin-2-yl)piperidine-2,6-dione]",> 90%,0.01 to 0.05 µM,1 to 10 µM,1 to 10 µM
"Nc1ncnc2c1c(-c1ccc(Oc3ccccc3)cc1)nn2C1CCN(C(=O)N2CCN(CCCN3CCC(c4ccc5c(c4)C(=O)N(C4CCC(=O)NC4=O)C5=O)CC3)CC2)CC1 (stereo not shown) [Compound 123, 5-(1-(3-(4-(4-(4-amino-3-(4-phenoxyphenyl)-1H-pyrazolo[3,4-d]pyrimidin-1-yl)piperidine-1-carbonyl)piperazin-1-yl)propyl)piperidin-4-yl)-2-(2,6-dioxopiperidin-3-yl)isoindoline-1,3-dione]",> 75%,> 0.05 µM,1 to 10 µM,1 to 10 µM
"Nc1ncnc2c1c(-c1ccc(Oc3ccccc3)cc1)nn2C1CCN(C(=O)N2CCN(CCN3CCC(c4ccc5c(c4)C(=O)N(C4CCC(=O)NC4=O)C5=O)CC3)CC2)CC1 (stereo not shown) [Compound 99, 5-(1-(2-(4-(4-(4-amino-3-(4-phenoxyphenyl)-1H-pyrazolo[3,4-d]pyrimidin-1-yl)piperidine-1-carbonyl)piperazin-1-yl)ethyl)piperidin-4-yl)-2-(2,6-dioxopiperidin-3-yl)isoindoline-1,3-dione]",> 90%,0.01 to 0.05 µM,> 10 µM,1 to 10 µM
"Nc1ncnc2c1c(-c1ccc(Oc3ccccc3)cc1)nn2C1CCCN(CCOCCOCCN2CCC(c3ccc4c(c3)C(=O)N(C3CCC(=O)NC3=O)C4=O)CC2)C1 (stereo not shown) [Compound 13, 5-(1-(2-(2-(2-(3-(4-amino-3-(4-phenoxyphenyl)-1H-pyrazolo[3,4-d]pyrimidin-1-yl)piperidin-1-yl)ethoxy)ethoxy)ethyl)piperidin-4-yl)-2-(2,6-dioxopiperidin-3-yl)isoindoline-1,3-dione]",> 75%,0.01 to 0.05 µM,1 to 10 µM,1 to 10 µM
"Nc1ncnc2c1c(-c1ccc(Oc3ccccc3)cc1)nn2[C@@H]1CCCN(C(=O)N2CCN(CCCN3CCN(c4ccc5c(c4)CN(C4CCC(=O)NC4=O)C5=O)CC3)CC2)C1 (stereo partly drawn) [Compound 108, 3-(5-(4-(3-(4-((R)-3-(4-amino-3-(4-phenoxyphenyl)-1H-pyrazolo[3,4-d]pyrimidin-1-yl)piperidine-1-carbonyl)piperazin-1-yl)propyl)piperazin-1-yl)-1-oxoisoindolin-2-yl)piperidine-2,6-dione]",> 75%,> 0.05 µM,1 to 10 µM,1 to 10 µM

# Second part, led by results:
Dmax (BTK),DC50 (BTK),SMILES,IC50 (Mino cells),IC50 (JeKo-1 cells)
> 90%,0.01 to 0.05 µM,"Nc1ncnc2c1c(-c1ccc(Oc3ccccc3)cc1)nn2C1CCN(CCOCCC2CCN(c3ccc4c(c3)C(=O)N(C3CCC(=O)NC3=O)C4=O)CC2)CC1 (stereo not shown) [Compound 19, 5-(4-(2-(2-(4-(4-amino-3-(4-phenoxyphenyl)-1H-pyrazolo[3,4-d]pyrimidin-1-yl)piperidin-1-yl)ethoxy)ethyl)piperidin-1-yl)-2-(2,6-dioxopiperidin-3-yl)isoindoline-1,3-dione]",1 to 10 µM,1 to 10 µM
> 90%,0.01 to 0.05 µM,"Nc1ncnc2c1c(-c1ccc(Oc3ccccc3)cc1)nn2[C@@H]1CCCN(C2CCN(C(=O)N3CCN(CCN4CCN(c5ccc6c(c5)C(=O)N(C5CCC(=O)NC5=O)C6=O)CC4)CC3)CC2)C1 (stereo partly drawn) [Compound 175, 5-(4-(2-(4-((R)-3-(4-amino-3-(4-phenoxyphenyl)-1H-pyrazolo[3,4-d]pyrimidin-1-yl)-[1,4′-bipiperidine]-1′-carbonyl)piperazin-1-yl)ethyl)piperazin-1-yl)-2-(2,6-dioxopiperidin-3-yl)isoindoline-1,3-dione]",1 to 10 µM,1 to 10 µM
> 90%,< 0.01 µM,"Nc1ncnc2c1c(-c1ccc(Oc3ccccc3)cc1)nn2C1CCN(C(=O)N2CCC(CN3CCC(c4ccc5c(c4)C(=O)N(C4CCC(=O)NC4=O)C5=O)CC3)CC2)CC1 (stereo not shown) [Compound 91, 5-(1-((1-(4-(4-amino-3-(4-phenoxyphenyl)-1H-pyrazolo[3,4-d]pyrimidin-1-yl)piperidine-1-carbonyl)piperidin-4-yl)methyl)piperidin-4-yl)-2-(2,6-dioxopiperidin-3-yl)isoindoline-1,3-dione]",1 to 10 µM,1 to 10 µM
> 75%,> 0.05 µM,"Nc1ncnc2c1c(-c1ccc(Oc3ccccc3)cc1)nn2[C@@H]1CCCN(C(=O)N2CCN(CCCC3CCN(c4ccc5c(c4)C(=O)N(C4CCC(=O)NC4=O)C5=O)CC3)CC2)C1 (stereo partly drawn) [Compound 109, 5-(4-(3-(4-((R)-3-(4-amino-3-(4-phenoxyphenyl)-1H-pyrazolo[3,4-d]pyrimidin-1-yl)piperidine-1-carbonyl)piperazin-1-yl)propyl)piperidin-1-yl)-2-(2,6-dioxopiperidin-3-yl)isoindoline-1,3-dione]",> 10 µM,> 10 µM
> 75%,< 0.01 µM,"Nc1ncnc2c1c(-c1ccc(Oc3ccccc3)cc1)nn2[C@@H]1CCCN(CC2CCN(CCN3CCC(c4ccc5c(c4)CN(C4CCC(=O)NC4=O)C5=O)CC3)CC2)C1 (stereo partly drawn) [Compound 136, 3-(5-(1-(2-(4-(((R)-3-(4-amino-3-(4-phenoxyphenyl)-1H-pyrazolo[3,4-d]pyrimidin-1-yl)piperidin-1-yl)methyl)piperidin-1-yl)ethyl)piperidin-4-yl)-1-oxoisoindolin-2-yl)piperidine-2,6-dione]",< 1 µM,1 to 10 µM
> 75%,> 0.05 µM,"Nc1ncnc2c1c(-c1ccc(Oc3ccccc3)cc1)nn2C1CCN(C(=O)N2CCN(CCCC3CCN(c4ccc5c(c4)C(=O)N(C4CCC(=O)NC4=O)C5=O)CC3)CC2)CC1 (stereo not shown) [Compound 121, 5-(4-(3-(4-(4-(4-amino-3-(4-phenoxyphenyl)-1H-pyrzolo[3,4-d]pyrimidin-1-yl)piperidine-1-carbonyl)piperazin-1-yl)propyl)piperidin-1-yl)-2-(2,6-dioxopiperidin-3-yl)isoindoline-1,3-dione]",1 to 10 µM,1 to 10 µM
